In PubChem BioAssay (NCI) one finds GI50 and TGI data, which are given here for 7 molecules.

“And” between values parts separate entries of the source, which are not always exact repeats. Identical values can stand only once.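 96-well plates; 48 h exposure; 5 concentrations. Endpoints by linear interpolation between flanking doses. Not reached: highest tested concentration assigned. Abbreviation: GI50, concentration required for 50% inhibition of growth. At the TGI there is no net growth.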 Some results are limits rather than exact numbers.

Holding throughout (experiment): NCI-60 cell line screen, 48 h
Assay [1] relates to NCI-H226 lung.
Assay [2] relates to HL-60(TB) leukemia.
For assay [3], the system named is SNB-75 CNS.
In assay [4] the test system is SF-539 CNS.
Assay [5] concerns OVCAR-8 ovarian.
In assay [6] the test system is HT29 colon.
Assay [7] concerns U251 CNS.
The test system of assay [8] is NCI-H23 lung.
Assay [9] deals with DU-145 prostate.
The subject of assay [10] is K-562 leukemia.

For the molecule `CC1(C)CC(=O)C2=C(C1)NC(SSC1=C(C#N)C(c3ccccc3)C3=C(CC(C)(C)CC3=O)N1)=C(C#N)C2c1ccccc1` (centres undefined), the GI50 is 32 µg/mL in assay [1]; 33.7 µg/mL in assay [2]; 29 µg/mL in [3]; 26.9 µg/mL in assay [4]; 31.6 µg/mL in assay [5]; 26.8 µg/mL in assay [6]. In addition, the GI50 in assay [7] is 33.2 µg/mL; in assay [8] it was 27.7 µg/mL; in assay [9], 44.7 µg/mL; in [10], 42.3 µg/mL. Also, the TGI in assay [1] came out at 70.8 µg/mL; in assay [2], 97.8 µg/mL; in [3], 53.3 µg/mL; in [4], 51 µg/mL; in assay [5] it was 57.4 µg/mL; in assay [6] it was 48.2 µg/mL. Also, the TGI was determined as 64.2 µg/mL in assay [7], 50.9 µg/mL in assay [8], 126 µg/mL in assay [9] and 145 µg/mL in assay [10].
`COc1cc(CCc2cc(NC(=O)c3ccc(N4C[C@@H](C)N[C@@H](C)C4)cc3)n[nH]2)cc(OC)c1`: the TGI is > 10 µM and 21.3 µM in [1]; > 10 µM and 14.9 µM in assay [2]; > 10 µM and 11.2 µM in assay [3]; > 10 µM and 15.1 µM in [4]; > 10 µM and 25.7 µM in [5]; > 10 µM and 13.3 µM in assay [6]. The TGI was > 10 µM and 18 µM in assay [7]; > 10 µM and 17.3 µM in [8]; > 10 µM and 18.5 µM in assay [9]; > 10 µM and 15.8 µM in assay [10]. Moreover, the GI50 in [2] is 2.47 µM and 4.15 µM; in [3], 1.93 µM and 2.61 µM; in assay [4], 6.6 µM and 4.08 µM; in assay [5], > 10 µM and 9.01 µM; in [6] it was 3.86 µM and 3.33 µM; in assay [7] it was > 10 µM and 3.86 µM. Moreover, the GI50 in assay [8] was > 10 µM and 3.98 µM; in assay [9], 7.62 µM and 6.09 µM; in assay [10], 6.89 µM and 4.18 µM.
As for `O=C(CCCc1c[nH]c2ccccc12)NC1CC(=O)c2c(Br)sc(Br)c21` (centres undefined), the GI50 in assay [1] was 19.6 µM; in assay [2] it was 5.04 µM; in [3], 13.9 µM; in assay [4], 23.1 µM; in [5], 9.41 µM; in assay [6], 7.13 µM. The GI50 in [7] was 7.29 µM; in [8], 12.2 µM; in assay [9], 23.5 µM; in [10], 2.01 µM. Besides, the TGI is 35.5 µM in assay [1]; 67.1 µM in [2]; 27.7 µM in assay [3]; 50.1 µM in [4]; above 100 µM in [5]; 22 µM in [6]. Also, the TGI in assay [7] was 19.9 µM; in assay [8], 26.1 µM; in assay [9], above 100 µM; in assay [10] it was 5.56 µM.
With `O/N=C1\CCc2cc(-c3nc(C4CCNCC4)[nH]c3-c3ccncc3)ccc21`, the GI50 in assay [1] is above 25 µM; in assay [2], above 25 µM; in assay [3], above 15.8 µM; in assay [4], above 25 µM; in assay [5], above 25 µM; in assay [6], above 16.4 µM. For the same molecule, the GI50 in [7], in assay [8], in assay [9] and in assay [10] was above 25 µM in each case. Also, the TGI in assay [1], in assay [2], in assay [3], in assay [4], in assay [5] and in assay [6] was above 25 µM in each case. For the same molecule, the TGI in assay [7], in assay [8], in assay [9] and in assay [10] was above 25 µM each time.
Take `Cc1ccc(S(=O)(=O)NC(CCC(=O)Nc2ccc(Cl)cc2)C(=O)Nc2ccc(Cl)cc2)cc1` (centres undefined): the GI50 in assay [1] is 0.841 µM; in assay [2] it was 0.369 µM; in assay [3], 0.743 µM; in assay [4] it was 0.21 µM; in assay [5], 0.724 µM; in assay [6], 1.35 µM. In addition, the GI50 is 0.574 µM in assay [7], 1.49 µM in assay [8], 1.2 µM in [9] and 0.0519 µM in assay [10]. Moreover, the TGI is 5.67 µM in assay [1]; 5.76 µM in assay [2]; 2.23 µM in assay [3]; 1.54 µM in assay [4]; 8.62 µM in assay [5]; 9.85 µM in assay [6]. In addition, the TGI in assay [7] stood at 5.13 µM; in assay [8] it was 9.21 µM; in assay [9] it was 9.89 µM; in assay [10] it was 6.3 µM.
For the molecule `C[C@H]1[C@H](OC(=O)CCC(=O)O)O[C@@H]2O[C@]3(C)CC[C@H]4[C@H](C)CC[C@@H]1[C@@]24OO3`, the GI50 in assay [1] was 0.956 µM; in assay [2], 0.167 µM; in assay [3] it was 2.34 µM; in assay [4], 0.667 µM; in [5] it was 0.445 µM; in [6], 0.627 µM. Besides, the GI50 in [7] was 0.503 µM; in assay [8] it was 0.383 µM; in assay [9] it was 6.48 µM; in assay [10] it was 0.443 µM. Also, the TGI was 34.6 µM in assay [1]; 0.566 µM in assay [2]; 17.6 µM in [3]; 14.5 µM in assay [4]; above 46.4 µM in assay [5]; 16.8 µM in assay [6]. Further, the TGI in assay [7] was 18.5 µM; in [8], 10.7 µM; in [9], 20.1 µM; in assay [10] it was 10 µM.
As for `O=C1/C(=C\c2ccc(Cl)cc2)CN(C(=S)Nc2ccccc2)C/C1=C\c1ccc(Cl)cc1`, the GI50 in assay [1] was 1.64 µM; in [2] it was 1.62 µM; in assay [3] it was 1.25 µM; in [4] it was 0.427 µM; in assay [5], 0.527 µM; in assay [6], 0.277 µM. For the same molecule, the GI50 in assay [7] is 0.212 µM; in [8], 1.3 µM; in assay [9], 1.11 µM; in assay [10], 0.356 µM. The TGI in [1] is 4.58 µM; in [2], 7.85 µM; in [3], 3.82 µM; in assay [4] it was 1.54 µM; in assay [5] it was above 47.9 µM; in assay [6] it was 0.719 µM. Also, the TGI came out at 0.484 µM in assay [7], 3.92 µM in assay [8], 3.48 µM in assay [9] and 7.67 µM in assay [10].
